{
  "source": "patent US12629368B2",
  "about": "“Use of N-(3-(4-(3-(diisobutylamino)propyl)piperazin-1-yl)propyl)-1H-benzo[d]imidazol-2-amine sulphate salts and solvates thereof for the treatment of motor neuron diseases and neuromuscular junction disorders” (ALZPROTECT, priority 2020, dated 2026)",
  "key": {"ALS [1]": {"tested_on": "ALS", "conditions": "injected intravenously, small subset of people with ALS, phase 3; cited from earlier work"}, "[2]": {"tested_on": "SOD1^G93A Tg rat spinal cord motor neurons", "test": "Primary culture of SOD1G93A Tg rat spinal cord motor neurons injured with glutamate (Example 3)", "assay_type": "cell-based", "protocol": "The day of the dissection (from pregnant females at 14 days of gestation), a piece of each embryo head (˜3 mm^3) was placed in a 2 mL tube free DNase with a new scalpel. The DNA was extracted with the SYBR Green Extract-N-Amp tissue PCR kit (Sigma Aldrich). Briefly, 120 μL of extraction solution was put on each piece of embryo heads. Then, they were incubated for 10 min at room temperature. At the end of this incubation period, the heads were incubated for 5 min at 95° C. Immediately after this last incubation, 100 μL of neutralizing solution was added; each DNA extract was diluted at 1/40 and stored at +4° C. until use. SOD1^G93A gene was determined using genomic fragment with human SOD1 primers (5′-[…]-3′; 5′-[…]-3′). The SOD1 primers were diluted at 3 μM in sterile ultrapure water. Briefly, a mix for PCR was prepared with ultrapure water (4 μL per sample), primer at 3 μM (2 μL per sample) and Master Mix (10 μL per sample). In a PCR 96 wells plate, 16 μL of PCR mix was added in each well. 4 μL of each diluted DNA was added according to a plan deposit.\nRat spinal cord (SC) motor neurons were cultured as described by Martinou et al., Neuron. 1992, April; 8(4), 737-44 and Wang et al. Hum. Mol. Genet., 2013 Dec. 1; 22(23), 4706-19. Pregnant female rats of 14 days of gestation were killed by cervical dislocation. Fetuses were collected and immediately placed in ice-cold L15 Leibovitz medium with a 2% penicillin (10,000 U/mL) and streptomycin (10 mg/mL) solution (PS) and 1% bovine serum albumin (BSA). Each fetus was dispatched on numerating petri dish (35 mm of diameter). Tail of fetuses were cut, placed on 1.5 ml tube free DNAase; the DNA was extracted with the Extract-N-Amp Tissue Kit.\nThe genotyping of SOD tg fetuses was performed with the kit Fast SYBR Green Master Mix. This genotyping was made during the dissection of spinal cord, thus at the end of the dissection culture of SOD Tg spinal cord and WT spinal cord was done. Spinal cords were removed and placed in ice-cold medium of Leibovitz (L15). SC were treated for 20 min at 37° C. with a trypsin-EDTA solution at a final concentration of 0.05% trypsin and 0.02% EDTA. The dissociation was stopped by addition of Dulbecco's modified Eagle's medium (DMEM) with 4.5 g/liter of glucose, containing DNAse I grade II (final concentration 0.5 mg/mL) and 10% fetal calf serum (FCS). Cells were mechanically dissociated by three forced passages through the tip of a 10-ml pipette. Cells were then centrifuged at 180×g for 10 min at +4° C. on a layer of BSA (3.5%) in L15 medium. […] Viable cells were counted in a Neubauer cytometer, using the trypan blue exclusion test. […]"}, "[3]": {"tested_on": "primary culture of rat spinal motor neurons", "test": "Rat primary spinal motor neurons injured with glutamate, 48 h co-incubation (Example 1)", "assay_type": "cell-based", "conditions": "48 h incubation", "protocol": "(§1) Rat motor neurons (MN) were cultured as previously described by Martinou et al., Neuron. 1992, April; 8(4), 737-44 and Wang et al. Hum. Mol. Genet., 2013 Dec. 1; 22(23), 4706-19. Pregnant female rats of 14 days gestation (Rats Wistar; Janvier Labs France) were killed using a deep anesthesia with CO2 followed by cervical dislocation. Then, fetuses were removed from the uterus and immediately placed in ice-cold L15 Leibovitz medium with a 2% penicillin (10,000 U/mL) and streptomycin (10 mg/mL) solution (PS) and 1% bovine serum albumin (BSA). Spinal cords were treated for 20 min at 37° C. with a trypsin-Ethylenediaminetetraacetic acid (EDTA) solution at a final concentration of 0.05% trypsin and 0.02% EDTA. The dissociation was stopped by the addition of Dulbecco's modified Eagle's medium (DMEM) with 4.5 g/liter of glucose, containing DNAse I grade II (final concentration 0.5 mg/mL) and 10% fetal calf serum (FCS). Cells were mechanically dissociated by three forced passages through the tip of a […]. Cells were then centrifuged at 180×g for 10 min at +4° C. on a layer of BSA (3.5%) in L15 medium. The supernatant was discarded, and the pellet was resuspended in a defined culture medium consisting of Neurobasal medium with a 2% solution of B27 supplement, 2 mmol/liter of L-glutamine, 2% of PS solution, and 10 ng/mL of brain-derived neurotrophic factor (BDNF). Viable cells were counted in a Neubauer cytometer, using the trypan blue exclusion test. The cells were seeded at a density of 20,000 per well in 96-well plates (immunostaining) precoated with poly-L-lysine and cultured at 37° C. in an air (95%)-CO2 (5%) incubator. The medium was changed every 2 days. The motor neurons were injured with glutamate after 13 days of culture.\nOn day 13 of culture, glutamate was added to a final concentration of 5 μM diluted in control medium in presence of the sulphate salt for 20 min. After 20 min, glutamate was washed and fresh culture medium with the sulphate salt was added for 48 hours.\n(§2) After 14 or 15 days of culture (48 h after the glutamate injury), the cell culture supernatant was collected and the spinal cord MNs were fixed by a cold solution of ethanol (95%) and acetic acid (5%) for 5 min at −20° C. After permeabilization with 0.1% of saponin, cells were blocked for 2 h with PBS containing 1% fetal calf serum. Then, cells were incubated with: • a) mouse monoclonal antibody anti-microtubule associated protein 2 (MAP-2) at dilution of 1/400 in PBS containing 1% fetal calf serum and 0.1% of saponin. This antibody binds specifically MAP-2 present in cell bodies and neurites of all MNs. […] Nuclei of neurons were labeled by a fluorescent marker (Hoechst solution). • b) Rabbit polyclonal antibody anti-TDP43 at dilution of 1/100 in PBS containing 1% fetal calf serum and 0.1% of saponin. Cytoplasmic localization of TDP43 was investigated.\nAll images were taken under the same conditions (exposition time, gain and laser intensity). Analysis of different endpoints, were automatically performed using Custom Module Editor (Molecular Devices). […]\n(§3) The endpoints were: • survival of MN (number of MN) • total neurite outgrowth of MN (expressed in μm) • TDP43 (extranuclear, eTDP43) in MN (expressed as area eTDP43-μm^2/number of MN) Statistical Analysis\nAll values are expressed as mean+/−SEM. […]"}, "[4]": {"tested_on": "spinal cord/muscle neuromuscular junctions", "test": "Co-culture of human myoblasts and rat spinal cord explants injured with glutamate, neuromuscular junctions (Example 4)", "assay_type": "cell-based, human muscle cell line", "conditions": "300 nM, glutamate 60 μM 20 min, 48 h"}, "[5]": {"tested_on": "rat primary motor neurons", "test": "Rat primary motor neurons injured with glutamate, 24 h pre-treatment + 24 h post-injury treatment (Example 2)", "assay_type": "cell-based", "protocol": "as §1, §2\nAll images were taken under the same conditions (exposition time, gain and laser intensity). Analysis of different endpoints, were automatically performed using Custom Module Editor (Molecular Devices). Motoneurons (MAP-2) were distinguished from interneurons (staining MAP-2) using the following morphological criteria: a cell body diameter […] and the presence of a minimum of three neuritic processes (Ferraiuolo et al. Brain 2011: 134; 2627-2641).\nas §3\nThe culture was carried out as described in example 1.\nOn day 12 of culture, primary motor neurons were treated with the sulphate salt for 24 hours. […]"}, "ALS [6]": {"tested_on": "ALS", "conditions": "oral drug, ALS patients; cited from earlier work"}, "[7]": {"conditions": "dose dependence, 5 μM glutamate 20 min, 48 h"}},
  "data": [
    {"molecule": "CC1=NN(c2ccccc2)C(=O)C1", "note": "[Edavarone]", "values": [
      {"measurement": "Decline of ALS Functional Rating Scale-Revised score compared with placebo", "setting": "ALS [1]", "result": "significantly smaller decline"}
    ]},
    {"molecule": "CC(C)CN(CCCN1CCN(CCCNc2nc3ccccc3[nH]2)CC1)CC(C)C.O=S(=O)(O)O.O=S(=O)(O)O", "note": "[N-(3-(4-(3-(diisobutylamino)propyl)piperazin-1-yl)propyl)-1H-benzo[d]imidazol-2-amine di-sulphate]", "values": [
      {"measurement": "Protective effects compared with Riluzole and Edaravone", "setting": "[2]; 300 nM versus Riluzole 1 μM and Edaravone 5 μM", "result": "greater than those of Riluzole or Edaravone"},
      {"measurement": "Neuroprotection (number of MNs, neurite network, TDP-43 distribution)", "setting": "[2]; all investigated doses, 5 μM glutamate 20 min, 48 h", "result": "neuroprotective"},
      {"measurement": "Protective effect on neuronal survival", "setting": "[2]; [7]", "result": "dose-dependent"},
      {"measurement": "Protective effect on the distribution of TDP-43", "setting": "[2]; [7]", "result": "dose-dependent"},
      {"measurement": "Effect on motor neuron survival compared to the glutamate condition", "setting": "[3]; 10 nM to 30 nM, 5 μM glutamate 20 min", "result": "positive and significant effect on survival"},
      {"measurement": "Neurite network integrity (mean length, percentage of control)", "setting": "[3]; 30 nM (maximal effect), 5 μM glutamate 20 min", "result": 80, "unit": "%"},
      {"measurement": "Motor neuron survival (mean survival, percentage of control)", "setting": "[3]; 30 nM (maximal effect), 5 μM glutamate 20 min, glutamate alone 55%", "result": 82, "unit": "%"},
      {"measurement": "Extranuclear TDP-43 (cytoplasmic accumulation)", "setting": "[3]; 10 and 30 nM, 5 μM glutamate 20 min", "result": "able to prevent the accumulation of TDP-43 in the cytoplasm"},
      {"measurement": "Effect on neurite network after glutamate injury", "setting": "[3]; all investigated doses", "result": "able to improve the neurite network after glutamate injury"},
      {"measurement": "Neuroprotective effect on neuromuscular junctions and neurite network against glutamatergic stress", "setting": "[4]", "result": "successfully protected the neuromuscular junctions and the neurite network"},
      {"measurement": "Number of NMJs", "setting": "[4]", "result": "increased"},
      {"measurement": "Total area of NMJs", "setting": "[4]", "result": "increased"},
      {"measurement": "Total neurite network", "setting": "[4]", "result": "increased"},
      {"measurement": "Effect on motor neuron survival compared to the glutamate condition", "setting": "[5]; 3 nM to 30 nM, 24 h pre-incubation + 24 h post-injury", "result": "positive and significant effect on survival"},
      {"measurement": "Extranuclear TDP-43 (abnormal distribution)", "setting": "[5]; 10 nM to 30 nM, glutamate alone eTDP-43 signal 128% of control", "result": "able to fully prevent the abnormal distribution of TDP-43"},
      {"measurement": "Neurite network integrity (mean length, percentage of control)", "setting": "[5]; 30 nM (maximal effect), 24 h pre-incubation + 24 h post-injury", "result": 91, "unit": "%"},
      {"measurement": "Motor neuron survival (mean survival, percentage of control)", "setting": "[5]; 30 nM (maximal effect), 24 h pre-incubation + 24 h post-injury, glutamate alone 65%", "result": 87, "unit": "%"},
      {"measurement": "Effect on neurite network (protection from glutamate damage)", "setting": "[5]; all investigated doses, 24 h pre-incubation + 24 h post-injury", "result": "able to protect the neurite network from glutamate damage"}
    ]},
    {"molecule": "Nc1nc2ccc(OC(F)(F)F)cc2s1", "note": "[Riluzole]", "values": [
      {"measurement": "Effect on motor and respiratory functions", "setting": "ALS [6]", "result": "no effect"}
    ]}
  ]
}
